The target in assay [1] is T1, His tagged PTPN2 (TC45) protein (Homo sapiens, UniProt P17706).
T1 construct: His; made in house
T1 sequence (P17706 1-387 isoform P17706-2): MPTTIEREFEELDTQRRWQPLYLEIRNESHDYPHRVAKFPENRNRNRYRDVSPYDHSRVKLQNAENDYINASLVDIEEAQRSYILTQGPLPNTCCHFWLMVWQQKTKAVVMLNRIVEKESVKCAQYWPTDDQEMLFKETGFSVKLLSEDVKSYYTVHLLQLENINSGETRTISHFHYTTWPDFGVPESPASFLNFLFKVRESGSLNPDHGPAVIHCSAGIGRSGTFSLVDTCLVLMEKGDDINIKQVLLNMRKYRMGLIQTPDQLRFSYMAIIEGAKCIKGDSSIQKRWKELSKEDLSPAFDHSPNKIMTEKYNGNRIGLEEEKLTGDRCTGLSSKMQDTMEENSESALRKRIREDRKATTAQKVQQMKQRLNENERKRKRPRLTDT
Nature of the assay: Mobility Shift Assay (MSA) for PTPN2 inhibitors. As to conditions: enzyme 0.5 nM, substrate 2 μM, 10 minutes preincubation at room temperature. Type of assay: biochemical. The essentials: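 Enzyme (0.5 nM) preincubated 10 min at RT with compound (12-point, 1:3 dilution) in 50 mM HEPES pH 7.5, 10 mM EDTA, 2 mM DTT; OG488-labelled phospho-insulin-receptor peptide substrate (2 μM) then added for 10 min. After quench, dephosphorylation measured by microfluidic mobility shift (ex 488/em 530 nm); IC50 from % inhibition.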

Assay [2] deals with T2, His tagged full-length PTPN1 protein (Homo sapiens, UniProt P18031).
T2 construct: His; made in house
T2 sequence (P18031 1-435): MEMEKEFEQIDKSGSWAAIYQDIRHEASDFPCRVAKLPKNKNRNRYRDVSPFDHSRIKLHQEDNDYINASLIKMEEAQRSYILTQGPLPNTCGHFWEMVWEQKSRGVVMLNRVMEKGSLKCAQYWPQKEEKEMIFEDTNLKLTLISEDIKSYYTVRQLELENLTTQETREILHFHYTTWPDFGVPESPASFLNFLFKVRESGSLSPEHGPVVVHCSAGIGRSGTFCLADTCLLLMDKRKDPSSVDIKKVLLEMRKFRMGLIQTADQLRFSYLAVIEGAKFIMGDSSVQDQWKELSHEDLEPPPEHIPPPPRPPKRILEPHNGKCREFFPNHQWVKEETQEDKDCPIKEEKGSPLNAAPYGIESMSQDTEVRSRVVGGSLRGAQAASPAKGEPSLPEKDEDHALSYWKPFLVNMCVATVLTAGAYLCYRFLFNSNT
The assay is described as follows: Mobility Shift Assay (MSA) for PTPN1 inhibitors. It is filed as biochemical. As to conditions: enzyme 0.5 nM, substrate 2 μM, 10 minutes preincubation at room temperature. In a few lines:
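Full-length His-tagged human PTPN1 (0.5 nM) was pre-incubated 10 min at RT with compound (12-point, 1:3) in HEPES pH 7.5 buffer with EGTA, EDTA, Tween-20 and DTT. Fluorescent phospho-insulin-receptor peptide (2 μM) was then added for 10 min. After quench, dephosphorylation was measured by microfluidic mobility shift, and IC50 was taken from % inhibition.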

Assay [3] deals with IFNγ-induced STAT1 phosphorylation (pSTAT1) in B16F10 cells. Nature of the assay: B16F10 Phospho-STAT1 HTRF proximal pharmacodynamic (PD) assay. Type of assay: cell-based, murine. As to conditions: B16-F10; Table 2; 3 hours compound, then mouse IFNγ 100 nM 10 minutes; top dose 50 μM; read-out: B16F10 IFNγ Induced pSTAT1 EC50. The essentials: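 Murine B16F10 melanoma cells dosed 3 h at 37 °C (10-point, 3-fold dilution from 50 μM top dose), then stimulated 10 min with recombinant mouse IFNγ (100 nM final) and stopped with 3.3 μM staurosporine for 1 h. pSTAT1 in lysates detected by HTRF (Eu cryptate/d2 antibodies, 3 h RT, 665 nm emission); EC50 from dose-response curves.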

Data on three compounds can be found in patent publication US20250042894A1, “PROTEIN TYROSINE PHOSPHATASE INHIBITORS AND METHODS OF USE THEREOF” (Calico Life Sciences LLC, priority 2021, published 2025).

As a reminder, the IC50 is the concentration that inhibits the measured activity by half. A word on the EC50: it is the concentration giving half of the maximal effect.

Structures are written as SMILES.

For `CCC(C)(C)CCN[C@@H]1CSc2cc(O)c(N3CC(=O)NS3(=O)=O)c(F)c2C1` [Compound 124, 5-{(3S)-3-[(3,3-dimethylpentyl)amino]-5-fluoro-7-hydroxy-3,4-dihydro-2H-1-benzothiopyran-6-yl}-1λ^6,2,5-thiadiazolidine-1,1,3-trione], the values for the IC50 in assay [1] and in assay [2] were less than 10 nM and 10 to 100 nM, respectively. Moreover, the EC50 in assay [3] worked out at 6940 nM.
Regarding `O=C1CN(c2c(O)cc3c(c2F)C[C@H](NCCC2(CO)CCCC2)CS3)S(=O)(=O)N1` [Compound 105, 5-[(3S)-5-fluoro-7-hydroxy-3-({2-[1-(hydroxymethyl)cyclopentyl]ethyl}amino)-3,4-dihydro-2H-1-benzothiopyran-6-yl]-1λ^6,2,5-thiadiazolidine-1,1,3-trione], the concentration for half-maximal inhibition (IC50) in assay [1] was less than 10 nM; in assay [2], 10 to 100 nM. Also, the EC50 in assay [3] came out at 4810 nM.
Consider `O=C1CN(c2c(O)cc3c(c2F)C[C@H](NCCC2CCCCC2)CS3)S(=O)(=O)N1` [Compound 118, 5-{(3S)-3-[(2-cyclohexylethyl)amino]-5-fluoro-7-hydroxy-3,4-dihydro-2H-1-benzothiopyran-6-yl}-1λ^6,2,5-thiadiazolidine-1,1,3-trione], for which the IC50 in assay [1] and in assay [2] was less than 10 nM in each case. The EC50 in assay [3] was determined as 4220 nM.
